Assay results as given in patent publication US4207339A, “Anti-ulcer pharmaceutical composition containing inositol hexasulfate or an alkaline metal salt thereof as active ingredient” (Mitsui Toatsu Chemicals, Incorporated, priority 1978, dated 1980).
Counter-ions that a name gives are not always drawn. Like-named read-outs stand apart in the source and are kept apart here.

Key:
[1] = tested on: Shay's Ulcer; test: Anti-ulcer effect: Shay's ulcer (pyloric ligation); format: in vivo, Male rats of the Wistar strain; conditions: p.o., 12 hours, vs control U.I.
Procedure: (§1) The anti-ulcer effect of some compounds of this invention was evaluated with regard to various types of experimental gastric and duodenal ulcers. The method of evaluation for each type of ulcer is outlined below.
Male rats of the Wistar strain, 7 or 8 weeks of age, were used in groups of ten. After 48 hours of fasting, the pyloric part of the stomach was ligated under ether anesthesia. Immediately after the operation, a certain amount of a compound to be tested was orally administered to each animal of a group. After 12 hours, the degree of ulceration occurring in the anterior part of the stomach was rated and regarded as an ulcer index (U.I.). Control rats were treated in the same manner as described above, except that they received no compounds to be tested. The results given in Table 1 are expressed in terms of the percentage of inhibition based on the U.I. obtained in the control group.

[2] = tested on: Stress Ulcer; test: Anti-ulcer effect: stress ulcer; format: in vivo, Male rats of the Wistar strain; conditions: p.o., stress for 16 hours, vs control U.I.
Procedure: as §1
Male rats of the Wistar strain, 8 weeks of age, were used in groups of ten. Each animal was immobilized in a stressing cage as developed by Takagi et al., immersed in water at 23° C. to the level of the xiphoid process, and thereby subjected to stress for 16 hours. Thereafter, the stomach was excised. The length of the ulcer formed in the glandular part of the stomach was measured and regarded as an ulcer index (U.I.). A certain amount of a compound to be tested was orally administered just before subjecting the animal to stress. The results are also expressed in terms of the percentage of inhibition based on the U.I. obtained in the control group receiving no compounds to be tested.

[3] = tested on: Aspirin Ulcer; test: Anti-ulcer effect: aspirin ulcer; format: in vivo, Male rats of the Donryu strain; conditions: p.o., aspirin 250 mg/kg, 6 hours
Procedure: as §1
Male rats of the Donryu strain, 10 to 11 weeks of age, were used in groups of ten. After 24 hours of fasting, a certain amount of a compound to be tested was orally administered to each animal of a group. Ten minutes later, aspirin was orally administered in a dose of 250 mg/kg. After 6 hours, the size of the ulcer formed in the glandular part of the stomach was rated by visual inspection and regarded as an ulcer index (U.I.). The results are also expressed in terms of the percentage of inhibition based on the U.I. obtained in the control group receiving no compounds to be tested.

[4] = tested on: Acetic Acid Ulcer; test: Anti-ulcer effect: acetic acid ulcer; format: in vivo, Male rats of the Wistar strain; conditions: p.o., twice a day for 7 days
Procedure: as §1
Male rats of the Wistar strain, 6 weeks of age, were used in groups of ten. Under ether anesthesia, each animal was laparotomized, a round frame (with an inside diameter of 5 mm) made of stainless steel was applied to the anterior wall of the stomach, and 100% acetic acid was poured into the frame. After 30 seconds, the acetic acid was removed and the abdomen was closed. Starting on the 7th day after the operation, a certain amount of a compound to be tested was orally administered twice a day to each animal of a group for a period of 7 days. Thereafter, the degree of healing of the ulcer was rated by visual inspection and regarded as an ulcer index (U.I.). The results are also expressed in terms of the percentage of healing based on the U.I. obtained in the control group receiving no compounds to be tested.

[5] = tested on: Gastric Juice Secretion; test: Effect on gastric juice secretion (pyloric ligation); format: in vivo, Male rats of the Donryu strain; conditions: 250 mg/kg, p.o.; 4 hours; control 4.9 ± 0.4; significant at 5% level
Procedure: (§2) Male rats of the Donryu strain, 11 weeks of age, were used in groups of ten. After 24 hours of fasting, the pyloric part of the stomach was ligated. Four hours later, the gastric juice was collected and its volume was measured. Then, its acidity was determined by titrating an aliquot of the gastric juice with 0.05 N sodium hydroxide. Further, the activity of pepsin was determined by Anson's method. A definite amount (250 mg/kg) of a compound to be tested was orally administered immediately after the pyloric ligation.

[6] = tested on: Gastric Juice Acidity; test: Effect on gastric juice acidity (pyloric ligation, titration with 0.05 N sodium hydroxide); format: in vivo, Male rats of the Donryu strain; conditions: 250 mg/kg, p.o.; 4 hours; control 92.5 ± 3.7; significant at 5% level
Procedure: as §2

[7] = tested on: pepsin; test: Effect on pepsin activity (pyloric ligation, Anson's method); format: in vivo, Male rats of the Donryu strain; conditions: 250 mg/kg, p.o.; 4 hours; control 7.4 ± 0.5; significant at 1% level
Procedure: as §2

[8] = tested on: Cysteamine Duodenal Ulcer; test: Anti-ulcer effect: cysteamine duodenal ulcer; format: in vivo, Male rats of the Donryu strain; conditions: p.o., cysteamine hydrochloride 400 mg/kg, 18 hours
Procedure: as §1
(iv) Cysteamine Duodenal Ulcer
Male rats of the Donryu strain, 10 or 11 weeks of age, were used in groups of ten. After 24 hours of fasting, a certain amount of a compound to be tested was orally administered to each animal of a group. Thirty minutes later, cysteamine hydrochloride was orally administered in a dose of 400 mg/kg. After 18 hours, the product of the maximum and minimum diameters of the ulcer formed in the duodenum was determined and regarded as an ulcer index (U.I.). The results are also expressed in terms of the percentage of inhibition based on the U.I. obtained in the control group receiving no compounds to be tested.

[9] = tested on: Mouse; conditions: 7 days observation
Procedure: Male and female mice of the dd Y strain, 4 weeks of age, as well as male and female rats of the rats of the Wistar strain, 7 weeks of age, were used in groups of ten. They were preliminarily raised for a week. Then, a compound to be tested (sodium salt) was dissolved in physiological saline solution and administered orally or subcutaneously. In the case of oral administration, the highest possible doses of 0.2 ml/10 g for mice and 2 ml/100 g for rats were used which both corresponded to 5,000 mg/kg. In the case of subcutaneous administration, the doses were reduced to 1/2. […] The animals that died during this period of observation were subjected to post-mortem examination.

[10] = tested on: Rat; test: Acute toxicity in rats; format: in vivo, Male and female rats of the Wistar strain; conditions: 7 days observation
Excerpt: They were preliminarily raised for a week.

Compound	percentage of inhibition (Shay's Ulcer) ([1]; 100 mg/kg)	percentage of inhibition (Shay's Ulcer) ([1]; 250 mg/kg)	percentage of inhibition (Stress Ulcer) ([2]; 250 mg/kg)	percentage of inhibition (Aspirin Ulcer) ([3]; 100 mg/kg)	percentage of inhibition (Aspirin Ulcer) ([3]; 250 mg/kg)	percentage of healing (Acetic Acid Ulcer) ([4]; 100 mg/kg)	percentage of healing (Acetic Acid Ulcer) ([4]; 250 mg/kg)	Amount of Gastric Juice Secreted [5] [mL]	Acidity of Gastric Juice [6] [mEq/l]	Activity of Pepsin [7] [mg/mL]	other results
O=S(=O)(O)OC1C(OS(=O)(=O)O)C(OS(=O)(=O)O)C(OS(=O)(=O)O)C(OS(=O)(=O)O)C1OS(=O)(=O)O (stereo not shown) [Potassium Salt, inositol hexasulfate potassium salt]	85 percentage of inhibition	80 percentage of inhibition	25 percentage of inhibition	46 percentage of inhibition	40 percentage of inhibition	28 percentage of healing	22 percentage of healing	3.5 ± 0.4	60.2 ± 11.8	5.2 ± 0.4	–
O=S(=O)([O-])OC1C(OS(=O)(=O)[O-])C(OS(=O)(=O)[O-])C(OS(=O)(=O)[O-])C(OS(=O)(=O)[O-])C1OS(=O)(=O)[O-].[Na+].[Na+].[Na+].[Na+].[Na+].[Na+] (stereo not shown) [Sodium Salt, inositol hexasulfate sodium salt]	92 percentage of inhibition	77 percentage of inhibition	27 percentage of inhibition	44 percentage of inhibition	48 percentage of inhibition	29 percentage of healing	16 percentage of healing	3.3 ± 0.4	58.4 ± 11.7	5.0 ± 0.4	percentage of inhibition (Shay's Ulcer) ([1]; 50 mg/kg): 74 percentage of inhibition; percentage of inhibition (Stress Ulcer) ([2]; 500 mg/kg): 50 percentage of inhibition; percentage of inhibition (Aspirin Ulcer) ([3]; 50 mg/kg): 11 percentage of inhibition; percentage of inhibition (Cysteamine Duodenal Ulcer) ([8]; 100 mg/kg): 37 percentage of inhibition; percentage of inhibition (Cysteamine Duodenal Ulcer) ([8]; 250 mg/kg): 46 percentage of inhibition; percentage of inhibition (Cysteamine Duodenal Ulcer) ([8]; 500 mg/kg): 77 percentage of inhibition; percentage of healing (Acetic Acid Ulcer) ([4]; 500 mg/kg): 38 percentage of healing; LD50 ([9]; Oral): > 5,000 mg/kg; LD50 ([9]; Subcutaneous): > 2,500 mg/kg; LD50 ([10]; Oral): > 5,000 mg/kg; LD50 ([10]; Subcutaneous): > 2,500 mg/kg
